Test results reported in patent US11446233B2, “Serums for reducing lipid peroxidation” (L'OREAL, priority 2020, dated 2022).

Assay: Ingredient metering: LC-UV concentration of active ingredients on storage
Assay type: physicochemical
Conditions: for Concentration of ingredient in inventive formula, T1M 45° C / Concentration of ingredient in inventive formula, T1M TA: in Inventive Ex. 1, 1 month; for Concentration of ingredient in inventive formula, T1M TA / Concentration of ingredient in inventive formula, T2M TA: temperature ambient; for Concentration of ingredient in inventive formula, T2M 45° C / Concentration of ingredient in inventive formula, T2M TA: in Inventive Ex. 1, 2 months; for Concentration of ingredient in inventive formula, T0 M: in Inventive Ex. 1, month 0
Excerpt: The levels of Ascorbic Acid, Ferulic Acid, Salicylic Acid, and Silybum marianum Extract (Active Silybin) were metered.

| SMILES | Concentration of ingredient in inventive formula, T1M 45° C | Concentration of ingredient in inventive formula, T1M TA | Concentration of ingredient in inventive formula, T2M 45° C | Concentration of ingredient in inventive formula, T2M TA | Concentration of ingredient in inventive formula, T0 M |
| --- | --- | --- | --- | --- | --- |
| O=C1O[C@H]([C@@H](O)CO)C(O)=C1O [Ascorbic Acid] | 14.72% | 15.04% | 14.00% | 15.60% | 15.2% |
| COc1cc(/C=C/C(=O)O)ccc1O [Ferulic Acid] | 0.43% | 0.48% | 0.39% | 0.50% | 0.46% |
| O=C(O)c1ccccc1O [Salicylic Acid] | 0.49% | 0.50% | 0.47% | 0.49% |  |
